Data published in patent US20120178738A1, “DIBENZO [B,F] [1,4]OXAZAPINE COMPOUNDS” (ARYX THERAPEUTICS, INC., priority 2007, published 2012).
Read-outs that look alike come from different tables or passages of the source.

Assays:
human 5HT1A receptors = biological target: T1, human 5HT1A receptors (Homo sapiens, UniProt P08908); test: h5-HT1A receptor radioligand binding ([3H]8OH-DPAT); settings: pKi reported on a scale of 1 through 5
T1 construct: expressed in transfected cells; host or cells: Chinese hamster ovary cells (membranes)
T1 sequence (P08908 1-422): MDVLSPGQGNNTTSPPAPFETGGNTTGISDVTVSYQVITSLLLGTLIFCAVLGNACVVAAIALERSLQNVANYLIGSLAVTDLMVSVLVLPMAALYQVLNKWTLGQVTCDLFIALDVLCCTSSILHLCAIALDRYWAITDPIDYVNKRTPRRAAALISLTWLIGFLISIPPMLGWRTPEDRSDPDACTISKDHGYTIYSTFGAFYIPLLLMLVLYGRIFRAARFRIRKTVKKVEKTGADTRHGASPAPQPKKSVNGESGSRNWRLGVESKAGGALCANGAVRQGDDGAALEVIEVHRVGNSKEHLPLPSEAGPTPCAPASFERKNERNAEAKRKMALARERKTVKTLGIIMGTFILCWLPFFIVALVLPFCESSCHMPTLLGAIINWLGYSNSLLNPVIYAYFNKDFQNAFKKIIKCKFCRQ
Protocol: (§1) Consistent with standard competition radioligand binding assays, the methodology was based on displacement of radioligand from tissues (or cell lines) bearing the receptor of interest (Cheng, Y. and Prusoff, W. H. (1973). Biochem. Pharmacol. 22, 3099-3108). The measurements were based on the binding of a single concentration of radiolabeled ligand in the presence of various concentrations of unlabeled ligand.
(§2) Tissues (or cellular plasma membrane fractions) were incubated in the presence of radioligand at equilibrium and in the presence of a range of concentrations of the test compounds (which were non-radiolabeled), and the displaced radioligand was separated from the membranes by filtration. Nonspecific binding was assessed by measuring displacement of the radioligand in the presence of a compound known to block binding of the radioligand to the receptor. Finally, the concentration-response relationship for radioligand displacement (corrected for non-specific binding) was used to assess binding of the test compound to the receptor.

human M1 receptors = biological target: T2, human M1 receptors (Homo sapiens, UniProt P11229); test: hM1 receptor radioligand binding ([3H]NMS); settings: pKi reported on a scale of 1 through 5
T2 construct: expressed in transfected cells; host or cells: Chinese hamster ovary cells (membranes)
T2 sequence (P11229 1-460): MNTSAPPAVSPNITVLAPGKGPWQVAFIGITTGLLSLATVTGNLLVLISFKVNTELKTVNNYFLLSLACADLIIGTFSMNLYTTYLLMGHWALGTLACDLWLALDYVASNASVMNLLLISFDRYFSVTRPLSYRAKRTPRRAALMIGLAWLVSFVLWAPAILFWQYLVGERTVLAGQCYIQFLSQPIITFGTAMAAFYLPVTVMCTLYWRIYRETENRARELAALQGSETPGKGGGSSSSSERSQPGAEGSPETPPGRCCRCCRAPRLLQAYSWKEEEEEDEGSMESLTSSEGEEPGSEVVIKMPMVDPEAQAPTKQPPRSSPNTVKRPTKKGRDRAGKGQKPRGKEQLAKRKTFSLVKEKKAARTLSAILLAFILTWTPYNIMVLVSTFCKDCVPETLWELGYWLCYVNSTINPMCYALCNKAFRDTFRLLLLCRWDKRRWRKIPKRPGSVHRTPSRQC
Protocol: as §1, §2

human H1 receptors = biological target: T3, human H1 receptors (Homo sapiens, UniProt P35367); test: hH1 receptor radioligand binding ([3H]Pyrilamine); settings: pKi reported on a scale of 1 through 5
T3 construct: expressed in transfected cells; host or cells: Chinese hamster ovary cells (membranes)
T3 sequence (P35367 whole entry): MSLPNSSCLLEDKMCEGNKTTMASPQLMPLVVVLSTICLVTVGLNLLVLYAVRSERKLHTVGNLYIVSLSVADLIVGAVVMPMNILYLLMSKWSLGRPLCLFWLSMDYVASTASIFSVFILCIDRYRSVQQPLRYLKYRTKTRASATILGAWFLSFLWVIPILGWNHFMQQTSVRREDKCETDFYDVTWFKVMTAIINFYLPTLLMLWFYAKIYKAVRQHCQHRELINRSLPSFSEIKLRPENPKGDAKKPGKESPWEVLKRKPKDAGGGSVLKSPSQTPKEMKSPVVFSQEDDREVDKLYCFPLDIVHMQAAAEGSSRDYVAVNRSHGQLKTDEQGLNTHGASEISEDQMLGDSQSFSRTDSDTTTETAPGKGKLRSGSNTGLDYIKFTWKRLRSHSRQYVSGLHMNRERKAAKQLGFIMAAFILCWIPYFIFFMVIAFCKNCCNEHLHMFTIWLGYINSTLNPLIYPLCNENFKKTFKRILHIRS
Protocol: as §1, §2

[1] = biological target: T4, human D2s dopamine receptors (Homo sapiens, UniProt P14416); test: hD2S receptor radioligand binding ([3H]spiperone); settings: pKi reported on a scale of 1 through 5
T4 construct: expressed in transfected cells; host or cells: Chinese hamster ovary cells (membranes)
T4 sequence (P14416 1-414 isoform P14416-2): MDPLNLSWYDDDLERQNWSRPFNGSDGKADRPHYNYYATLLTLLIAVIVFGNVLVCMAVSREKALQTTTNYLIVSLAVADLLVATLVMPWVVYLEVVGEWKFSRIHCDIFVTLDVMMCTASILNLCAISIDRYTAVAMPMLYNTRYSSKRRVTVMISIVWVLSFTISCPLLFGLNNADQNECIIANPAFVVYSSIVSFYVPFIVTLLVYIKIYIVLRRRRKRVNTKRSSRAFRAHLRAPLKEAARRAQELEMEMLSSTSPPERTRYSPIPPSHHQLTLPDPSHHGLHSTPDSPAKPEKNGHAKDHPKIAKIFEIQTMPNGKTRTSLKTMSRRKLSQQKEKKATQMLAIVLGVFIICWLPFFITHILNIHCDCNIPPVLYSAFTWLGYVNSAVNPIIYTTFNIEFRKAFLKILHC
Protocol: as §1, §2

5-HT2A receptor = biological target: T5, 5-HT2A receptor (Rattus norvegicus, UniProt P14842); test: cell-based; settings: read-out: 5HT2A (pKb) (converted)
T5 construct: Eight strips of tissue (0.5 cm long) were cut. and were mounted in 10 ml organ baths; tissue Charles River Laboratories; host or cells: rat aorta strips, endothelium removed
T5 sequence (P14842 whole entry): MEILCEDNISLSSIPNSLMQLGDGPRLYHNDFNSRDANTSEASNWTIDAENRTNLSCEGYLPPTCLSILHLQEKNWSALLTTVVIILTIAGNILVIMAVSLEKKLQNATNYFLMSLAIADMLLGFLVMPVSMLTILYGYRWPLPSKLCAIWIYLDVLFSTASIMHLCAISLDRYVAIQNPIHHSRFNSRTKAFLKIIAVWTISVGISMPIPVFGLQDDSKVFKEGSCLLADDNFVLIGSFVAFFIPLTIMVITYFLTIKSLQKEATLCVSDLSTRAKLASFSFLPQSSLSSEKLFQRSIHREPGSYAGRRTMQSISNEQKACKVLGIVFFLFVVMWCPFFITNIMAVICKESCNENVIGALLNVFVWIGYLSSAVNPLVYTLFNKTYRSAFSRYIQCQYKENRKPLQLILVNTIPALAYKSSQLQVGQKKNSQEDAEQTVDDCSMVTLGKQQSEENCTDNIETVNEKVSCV
Protocol: The rat aorta (approximately 7 cm) was isolated and removed from the animal (male Sprague Dawley rat, Charles River Laboratories, Hollister, Calif.). The endothelium was removed mechanically. Eight strips of tissue (0.5 cm long) were cut. and were mounted in 10 ml organ baths kept at 37° C. with Krebs solution (composition in mM: NaCl (118.2), KCl (4.6), CaCl2 (2.5), MgSO4 (1.2), KH2PO4 (1.2), NaHCO3 (24.8) and dextrose (10.0)) that was constantly aerated with carbogen gas (95% O2/5% CO2) to obtain a pH of 7.4. The tissues were subjected to a resting tension of 2 g (3 times, 15 minutes apart, equilibrated in Krebs solution). The tissues were then washed 15 minutes later. Ten minutes later, the tissues were then exposed to 0.1 μM phenylephrine. At the maximal effect, 1 μM acetylcholine was added to confirm the absence of endothelium and then washed twice, 2 minutes apart.
Contractions were recorded as changes in tension from baseline and expressed as a percentage of the maximum response of the agonist (5-HT) concentration-effect curve. Agonist concentration-response curves were fitted using a nonlinear iterative fitting program (GraphPad Prism) using the relationship of Parker and Waud (Parker, R. B. and Waud, D. R. (1971). Pharmacological estimation of drug-receptor dissociation constants. Statistical evaluation. I. Agonists. J. Pharmacol. Exp. Ther., 177, 1-12). Agonist potency was expressed as EC50 (molar concentration of agonist producing 50% of the maximum response). Concentration-ratios (CRs) were determined from EC50 values in the presence and absence of antagonist and antagonist affinity estimates (pKB and pA2 values) were determined. All data are expressed as mean±s.e. mean.

human 5HT2C receptors = biological target: T6, human 5HT2C receptors (Homo sapiens, UniProt P28335); test: h5-HT2C receptor radioligand binding ([3H]Mesulergine); settings: pKi reported on a scale of 1 through 5
T6 construct: expressed in transfected cells; host or cells: human embryo kidney cells (membranes)
T6 sequence (P28335 33-458): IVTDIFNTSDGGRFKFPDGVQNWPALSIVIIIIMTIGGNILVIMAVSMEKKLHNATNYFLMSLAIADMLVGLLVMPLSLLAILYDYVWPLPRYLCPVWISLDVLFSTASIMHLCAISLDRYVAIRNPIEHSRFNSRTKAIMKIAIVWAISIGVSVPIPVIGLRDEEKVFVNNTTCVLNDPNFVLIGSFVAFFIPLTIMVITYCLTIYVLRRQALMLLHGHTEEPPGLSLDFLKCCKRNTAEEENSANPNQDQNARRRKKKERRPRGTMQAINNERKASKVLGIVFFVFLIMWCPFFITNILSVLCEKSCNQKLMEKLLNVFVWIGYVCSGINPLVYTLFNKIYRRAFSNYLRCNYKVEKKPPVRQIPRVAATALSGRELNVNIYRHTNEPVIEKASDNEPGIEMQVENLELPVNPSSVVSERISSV
Protocol: The measurements were based on the binding of a single concentration of radiolabeled ligand in the presence of various concentrations of unlabeled ligand.
as §2

[2] = pKb reported on a scale of 1 through 5

Ki (human 5HT2C receptors) [nM]	Compound	Ki (human 5HT1A receptors) [nM]	Ki (human M1 receptors) [nM]	Ki (human H1 receptors) [nM]	Ki [1] [nM]	Kb (5-HT2A receptor; [2]) [nM]	Kb (5-HT2A receptor) [nM]
	COC(=O)C[C@H]1CN(C2=Nc3cc(Cl)ccc3Oc3ccccc32)CCN1CC1CC1 [ET, (S,E)-methyl 2-(4-(8-chlorodibenzo[b,f][1,4]oxazepin-11-yl)-1-(cyclopropylmethyl)piperazin-2-yl)acetate]	1000 to 9770	2510 to 4900	100 to 977	631 to 2450	> 100	
	O=C(C[C@H]1CN(C2=Nc3cc(Cl)ccc3Oc3ccccc32)CCN1)N1CC[C@@H](O)C1 [GE, 2-((S)-4-((E)-8-chlorodibenzo[b,f][1,4]oxazepin-11-yl)piperazin-2-yl)-1-((R)-3-hydroxypyrrolidin-1-yl)ethanone]	100 to 977	2510 to 4900		2510 to 9770		10 to 30.9
	CN1CCN(C2=Nc3cc(Cl)ccc3Oc3ccccc32)C[C@@H]1CC(=O)NC(CF)CF [EV, (S,E)-2-(4-(8-chlorodibenzo[b,f][1,4]oxazepin-11-yl)-1-methylpiperazin-2-yl)-N-(1,3-difluoropropan-2-yl)acetamide]	1000 to 9770	5010 to 9770	10 to 97.7	2510 to 9770		31.6 to 97.7
	CCOC(=O)c1ccc(CCC2CN(C3=Nc4cc(Cl)ccc4Oc4ccccc43)CCN2)cc1 (centres unmarked) [Compound F, (E)-ethyl 4-(2-(4-(8-chlorodibenzo[b,f][1,4]oxazepin-11-yl)piperazin-2-yl)ethyl)benzoate]		1260 to 2450	1000 to 9770	631 to 2450	> 100	
	COC(=O)c1ccc(OCC2CN(C3=Nc4cc(Cl)ccc4Oc4ccccc43)CCN2)cc1 (centres unmarked) [G, (E)-methyl 4-((4-(8-chlorodibenzo[b,f][1,4]oxazepin-11-yl)piperazin-2-yl)methoxy)benzoate]		5010 to 9770	1000 to 9770	2510 to 9770		10 to 30.9
	CC(C)CNC(=O)CC1CN(C2=Nc3cc(Cl)ccc3Oc3ccccc32)CCN1 (centres unmarked) [B, (E)-2-(4-(8-chlorodibenzo[b,f][1,4]oxazepin-11-yl)piperazin-2-yl)-N-isobutylacetamide]		> 10000		158 to 617		31.6 to 97.7
	CCOC(=O)CC1CN(C2=Nc3ccccc3Oc3ccc(Cl)cc32)CCN1 (single isomer, unassigned) [Compound C, (E)-ethyl 2-(4-(2-chlorodibenzo[b,f][1,4]oxazepin-11-yl)piperazin-2-yl)acetate]		> 10000		2510 to 9770		31.6 to 97.7
	COC(=O)COCC1CN(C2=Nc3ccccc3Oc3ccc(Cl)cc32)CCN1C (centres unmarked) [DM, (E)-methyl 2-((4-(2-chlorodibenzo[b,f][1,4]oxazepin-11-yl)-1-methylpiperazin-2-yl)methoxy)acetate]				> 10000		10 to 30.9
100 to 977	CN1CCN(C2=Nc3cc(Cl)ccc3Oc3ccccc32)C[C@@H]1CC(=O)OCCCF [EX, (S,E)-3-fluoropropyl 2-(4-(8-chlorodibenzo[b,f][1,4]oxazepin-11-yl)-1-methylpiperazin-2-yl)acetate]	1000 to 9770	5010 to 9770	10 to 97.7	2510 to 9770		
	COCCNC(=O)C[C@H]1CN(C2=Nc3cc(Cl)ccc3Oc3ccccc32)CCN1CCO [GI, (S,E)-2-(4-(8-chlorodibenzo[b,f][1,4]oxazepin-11-yl)-1-(2-hydroxyethyl)piperazin-2-yl)-N-(2-methoxyethyl)acetamide]	1000 to 9770	> 10000		> 10000		31.6 to 97.7
	CC[C@H](C)OC(=O)C[C@H]1CN(C2=Nc3cc(Cl)ccc3Oc3ccccc32)CCN1 [EP, sec-butyl 2-((S)-4-((E)-8-chlorodibenzo[b,f][1,4]oxazepin-11-yl)piperazin-2-yl)acetate]	10 to 97.7	5010 to 9770	100 to 977	158 to 617		10 to 30.9
100 to 977	CN1CCN(C2=Nc3cc(Cl)ccc3Oc3ccccc32)CC1CC(=O)O (centres unmarked) [DO, (E)-2-(4-(8-chlorodibenzo[b,f][1,4]oxazepin-11-yl)-1-methylpiperazin-2-yl)acetic acid]	1000 to 9770		10 to 97.7	> 10000		
	COC(=O)c1ccc(OC[C@H]2CN(C3=Nc4ccccc4Oc4ccc(Cl)cc43)CCN2)cc1 [D, (R,E)-methyl 4-((4-(2-chlorodibenzo[b,f][1,4]oxazepin-11-yl)piperazin-2-yl)methoxy)benzoate]		> 10000	100 to 977	631 to 2450		31.6 to 97.7
	CN1CC[C@@H](OC(=O)C[C@H]2CN(C3=Nc4cc(Cl)ccc4Oc4ccccc43)CCN2C)C1 [ES, (R)-1-methylpyrrolidin-3-yl 2-((S)-4-((E)-8-chlorodibenzo[b,f][1,4]oxazepin-11-yl)-1-methylpiperazin-2-yl)acetate]	1000 to 9770	> 10000	10 to 97.7	> 10000		

Compound	Ki (human 5HT2C receptors) [nM]	Ki (human 5HT1A receptors) [nM]	Ki (human M1 receptors) [nM]	Ki (human H1 receptors) [nM]	Ki [1] [nM]	Kb (5-HT2A receptor; [2]) [nM]	Kb (5-HT2A receptor) [nM]
CN1CCN(C2=Nc3cc(Cl)ccc3Oc3ccccc32)C[C@@H]1CC(=O)N(CC(F)(F)F)CC(F)(F)F [EW, (S,E)-2-(4-(8-chlorodibenzo[b,f][1,4]oxazepin-11-yl)-1-methylpiperazin-2-yl)-N,N-bis(2,2,2-trifluoroethyl)acetamide]	1000 to 9770	1000 to 9770	5010 to 9770	100 to 977	> 10000	> 100	
